Earlier results, collected in patent US6740653B2, “Shelf life extension of microemulsions containing active aza biocide” (ISP Investments Inc., priority 2001, dated 2004).

Cc1ccc(/N=C/N(C)/C=N/c2ccc(C)cc2C)c(C)c1 [Amitraz]
soluble in water: 1 mg/L
